This note sets out measurements from US7618967B2, “Indane compounds” (H. Lundbeck A/S, priority 2006, dated 2009).

Molecules are shown by their SMILES.

Sequence of NAT Noradrenergic Transporter (Q9WTR4 6-550 limits assumed): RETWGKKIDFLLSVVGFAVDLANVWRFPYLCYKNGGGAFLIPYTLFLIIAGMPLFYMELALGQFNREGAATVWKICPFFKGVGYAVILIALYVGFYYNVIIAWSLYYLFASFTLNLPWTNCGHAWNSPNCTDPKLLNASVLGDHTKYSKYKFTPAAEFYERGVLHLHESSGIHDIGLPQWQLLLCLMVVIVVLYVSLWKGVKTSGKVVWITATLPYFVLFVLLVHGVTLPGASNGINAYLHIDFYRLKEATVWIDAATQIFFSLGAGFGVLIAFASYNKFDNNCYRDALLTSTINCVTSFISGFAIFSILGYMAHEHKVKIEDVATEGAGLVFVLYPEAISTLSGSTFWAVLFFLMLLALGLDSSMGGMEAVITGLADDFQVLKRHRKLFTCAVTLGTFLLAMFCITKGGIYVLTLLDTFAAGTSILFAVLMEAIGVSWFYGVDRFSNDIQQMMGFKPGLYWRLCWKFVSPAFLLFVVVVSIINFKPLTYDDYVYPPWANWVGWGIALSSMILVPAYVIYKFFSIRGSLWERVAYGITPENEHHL

For the experiment, the target named is NAT Noradrenergic Transporter (Rattus norvegicus, UniProt Q9WTR4). Nature of the experiment: Measurements of [3H]noradrenaline uptake into rat cortical synaptosomes. The experiment is classed as biochemical. On the procedure:
Transporter Inhibition Assays
Measurements of [^3H]Noradrenaline Uptake into Rat Cortical Synaptosomes
The homogenate is centrifuged at 1000×g for 10 min at 4° C. The pellet is discarded and the supernatant is centrifuged at 40.000×g for 20 min. […] Pellet is suspended in 140 volumes of assaybuffer. Tissue is mixed with test compounds and after 10 min pre-incubation, 10 nM [^3H]-noradrenaline is added to a final volume of 0.2 ml and the mixture is incubated for 15 min at 37° C. After 15 min incubation, samples are filtered directly on Unifilter GF/C glass fiber filters (soaked for 30 min in 0.1% polyethylenimine) under vacuum and immediately washed with 1×0.2 mL assay buffer.
Non-specific uptake is determined using talsupram (10 μM final concentration). Duloxetine is included as reference in all experiments as dose-response curve.
With `CN[C@@H]1C[C@@H](c2c[nH]c3ccc(Cl)cc23)c2ccccc21` [Formula VIII], the IC50 was in the range of 0.1 to 200 nM.

Molecule `CN[C@@H]1C[C@@H](c2c[nH]c3ccccc23)c2ccccc21` [Formula IX] had a half-inhibitory concentration (IC50) of 0.1 to 200 nM.

`CN[C@@H]1C[C@@H](c2c[nH]c3cc(OC)ccc23)c2ccccc21` [Formula X] registered a concentration for half-maximal inhibition (IC50) of 0.1 to 200 nM.

A word on the IC50: it is the concentration at which inhibition is half-maximal. Lower therefore signals higher potency.
